Test results taken from PMC9289130, “Pharmacokinetic Study of Four Major Bioactive Components of Liandan Xiaoyan Formula in Ulcerative Colitis and Control Rats Using UPLC-MS/MS” (Frontiers in Pharmacology, 2022).
Where two headings read alike, the source gives them in different places.

What was measured:
[1] = Stability test of QC samples in rat serum; format: in vitro ADME; details: n = 6
Description: Quality control (QC) samples at low, middle and high concentrations (61.50, 384.38, and 4,000.00 ng/ml for andrographolide; 24.00, 150.00, and 1,500.00 ng/ml for dehydroandrographolide; 6.91, 43.20, and 450.00 ng/ml for 1-methoxicabony-β-carboline; 6.30, 39.38, and 400.00 ng/ml for 4-methoxy-5-hydroxy-canthin-6-one) were also prepared by the same procedures.
Recovery was determined at three QC levels and calculated by comparing the compound standard peak areas obtained from extracted samples with post-extracted samples spiked with the compound. Matrix effects were calculated by matching spiking post-extracted blank serum samples with corresponding standard clean solutions at three concentrations of QC samples.

[2] = Pharmacokinetic study in control and DSS-induced UC rats after oral administration of LXF (serum, UPLC-MS/MS); format: in vivo, Sprague-Dawley (SD) rats; details: for Shape of the serum concentration-time curve: oral LXF; for AUC(0-inf) / AUC(0-t) / Cmax / Tmax / half-life / MRT inf: male, Sprague-Dawley, rat, serum, po, 3.3 g/kg, oral LXF 3.30 g/kg, rat serum, n = 8, mean ± SD; for MRT inf: read-out: MRT0→∞
Description: Sixteen male Sprague-Dawley (SD) rats (220 ± 10 g) were provided from the Liaoning Changsheng Biotechnology Co., Ltd (Benxi, China; with license No. of SCXK, 2020-0001). The rats were kept in an environment (22 ± 2°C, relative humidity 50 ± 5%) under a 12-h light-dark cycle with a free diet and water for 3 days. All experiments on animals were conducted strictly under the related ethics regulations of the Committee on Use and Care of Animals of Guangzhou University of Chinese Medicine (Guangzhou, China) (No. 712052).
All rats were assigned equally and randomly to the control and model groups. The rats of the model group were free to access 4% DSS for 7 days to induce UC, and rats of the control group were given pure water ([Chen et al., 2020]). Before the pharmacokinetics study, the DSS-induced UC rats (model) were established successfully (Supplementary Material Part B).
After fasting for 12 h, the rats were orally administered LXF at a 3.30 g/kg dose according to Prescription preparation of Chinese medicine, volume 10 ([Lu et al., 2021]). Serum samples (approximately 0.5 ml) were collected from the fosse orbital vein using 1.5 ml polythene tubes before the administration and at 0.083, 0.25, 0.5, 1, 1.5, 2.5, 4, 6, 8, 12, 24, 36, and 48 h after dosing and centrifuged immediately at 3,500 rpm for 15 min. Serum was transferred into clean tubes and stored at −80°C.
100 μl of IS solution (960 ng/ml) was added to a 100 μl serum sample and vortex-mixed for 0.5 min, and then 800 μl of methanol was added and vortex-mixed for 3 min. After centrifugation at 12,000 rpm for 15 min (4°C), the supernatant of the mixture was transferred to another vial and evaporated to dryness with nitrogen purging. The residue was resolved with 100 μ of methanol, vortex-mixed for 1 min, and centrifuged at 12,000 rpm for 10 min (4°C). A 2 μl aliquot of the supernatant was injected into the UPLC-MS/MS system for analysis.
Chromatographic analysis was performed using UPLC-MS/MS, utilizing a Finnigan Surveyor auto-sampler and a Finnigan Surveyor LC pump combined with a triple quadrupole TSQ Quantum mass spectrometer electrospray ionization (ESI) interface (Thermo Fisher, Palo Alto, CA). The chromatographic separation was performed on the Waters Acquity UPLC BEH C18 column (2.1 mm × 100 mm; 1.7 µm). The mobile phase consisted of acetonitrile (A) and 0.1% formic acid (B) with a gradient elution program (0-5 min, 20% A-35% A; 5-6 min, 35% A-100% A; 6–8min, 100% A; 8–8.5 min, 100% A-20% A; 8.5–10.5 min, 20% A) at a flow rate of 0.4 ml/min. The column temperature was maintained at 40°C throughout the analysis. The injection volume was 2 μl.
Quantification was performed using multiple reaction monitoring (MRM) in the positive ionization mode, and the optimized MRM parameters of the four analytes and IS are listed in Table 1. The MRM transition, retention time (RT), and collision energy (CE) values were based on Thermo Foundation 2.0. Curtain gas pressure at 35 psi, ion source gas 1 and gas 2 at 55 psi, ion spray voltage at 5500 V, and temperature at 500°C.
Non-compartment model pharmacokinetic parameters, including the time to reach the maximum serum concentration (Tmax), the maximum serum concentration (Cmax), the elimination half-time (T1/2), the area under the serum concentration-time curve (AUC), and mean residence time (MRT), were calculated by DAS (version 3.2.8, Chinese Pharmacological Association, Anhui, China). The difference between the control and model groups was statistically analyzed using SPSS 26.0 (IBM Company, Chicago). All data in this study were subjected to a one-way analysis of variance (ANOVA) and then expressed by mean ± standard deviation (SD). LSD t-test was applied when the homogeneity of variance assumptions was satisfied; otherwise, Dunnett’s t-test was used. A p < 0.05 was considered statistically significant.

C=C1CC[C@@H]2[C@](C)(CO)[C@H](O)CC[C@@]2(C)[C@H]1C/C=C1\C=COC1=O [dehydroandrographolide]
Stability, mean concentration found ([1]; 4°C for 24 h, high QC (nominal 4,000.00 / 1,500.00 / 450.00 / 400.00 ng/ml for compounds 1-4)): 1,421.52 ± 61.75 ng/mL
Stability, mean concentration found ([1]; 4°C for 24 h, low QC (nominal 61.50 / 24.00 / 6.91 / 6.30 ng/ml for compounds 1-4)): 25.71 ± 1.69 ng/mL
Stability, mean concentration found ([1]; 4°C for 24 h, middle QC (nominal 384.38 / 150.00 / 43.20 / 39.38 ng/ml for compounds 1-4)): 156.59 ± 14.58 ng/mL
Stability, mean concentration found ([1]; 25°C for 12 h, high QC (nominal 4,000.00 / 1,500.00 / 450.00 / 400.00 ng/ml for compounds 1-4)): 1,439.13 ± 52.46 ng/ml
Stability, mean concentration found ([1]; 25°C for 12 h, low QC (nominal 61.50 / 24.00 / 6.91 / 6.30 ng/ml for compounds 1-4)): 23.51 ± 0.69 ng/mL
Stability, mean concentration found ([1]; 25°C for 12 h, middle QC (nominal 384.38 / 150.00 / 43.20 / 39.38 ng/ml for compounds 1-4)): 153.93 ± 10.00 ng/mL
Stability, mean concentration found ([1]; three freeze-thaw, high QC (nominal 4,000.00 / 1,500.00 / 450.00 / 400.00 ng/ml for compounds 1-4)): 1,428.09 ± 67.73 ng/mL
Stability, mean concentration found ([1]; three freeze-thaw, low QC (nominal 61.50 / 24.00 / 6.91 / 6.30 ng/ml for compounds 1-4)): 21.20 ± 2.30 ng/mL
Stability, mean concentration found ([1]; three freeze-thaw, middle QC (nominal 384.38 / 150.00 / 43.20 / 39.38 ng/ml for compounds 1-4)): 143.60 ± 9.61 ng/mL
Stability, mean concentration found ([1]; −80°C for 30 days, high QC (nominal 4,000.00 / 1,500.00 / 450.00 / 400.00 ng/ml for compounds 1-4)): 1,419.63 ± 51.60 ng/ml
Stability, mean concentration found ([1]; −80°C for 30 days, low QC (nominal 61.50 / 24.00 / 6.91 / 6.30 ng/ml for compounds 1-4)): 22.46 ± 2.57 ng/mL
Stability, mean concentration found ([1]; −80°C for 30 days, middle QC (nominal 384.38 / 150.00 / 43.20 / 39.38 ng/ml for compounds 1-4)): 151.06 ± 3.31 ng/mL
Shape of the serum concentration-time curve ([2]; UC group): double peaks
Shape of the serum concentration-time curve ([2]; control group): double peaks
AUC(0-inf) ([2]; UC group (4% DSS for 7 days)): 4.79 µg·h/mL
AUC(0-t) ([2]; UC group (4% DSS for 7 days)): 4.69 µg·h/mL
Cmax ([2]; UC group (4% DSS for 7 days)): 1.15 µg/mL
Tmax ([2]; UC group (4% DSS for 7 days)): 0.38 ± 0.13 h
half-life ([2]; UC group (4% DSS for 7 days)): 2.86 ± 2.01 h
MRT inf ([2]; UC group (4% DSS for 7 days)): 5.08 ± 1.53 h
AUC(0-inf) ([2]; control group): 2.36 µg·h/mL
AUC(0-t) ([2]; control group): 2.33 µg·h/mL
Cmax ([2]; control group): 0.892 ± 0.148 µg/mL
Tmax ([2]; control group): 0.28 ± 0.09 h
half-life ([2]; control group): 2.28 ± 1.69 h
MRT inf ([2]; control group): 5.04 ± 1.96 h
